Marks after values point to notes of the source that are not given here.
Target: T1, Dopamine beta hydroxylase (Homo sapiens, UniProt P09172)
T1 construct: 125 μl of plasma; tissue Instituto Português do Sangue Transplantação; host or cells: human plasma from healthy donors
T1 sequence (P09172 40-617 limits assumed): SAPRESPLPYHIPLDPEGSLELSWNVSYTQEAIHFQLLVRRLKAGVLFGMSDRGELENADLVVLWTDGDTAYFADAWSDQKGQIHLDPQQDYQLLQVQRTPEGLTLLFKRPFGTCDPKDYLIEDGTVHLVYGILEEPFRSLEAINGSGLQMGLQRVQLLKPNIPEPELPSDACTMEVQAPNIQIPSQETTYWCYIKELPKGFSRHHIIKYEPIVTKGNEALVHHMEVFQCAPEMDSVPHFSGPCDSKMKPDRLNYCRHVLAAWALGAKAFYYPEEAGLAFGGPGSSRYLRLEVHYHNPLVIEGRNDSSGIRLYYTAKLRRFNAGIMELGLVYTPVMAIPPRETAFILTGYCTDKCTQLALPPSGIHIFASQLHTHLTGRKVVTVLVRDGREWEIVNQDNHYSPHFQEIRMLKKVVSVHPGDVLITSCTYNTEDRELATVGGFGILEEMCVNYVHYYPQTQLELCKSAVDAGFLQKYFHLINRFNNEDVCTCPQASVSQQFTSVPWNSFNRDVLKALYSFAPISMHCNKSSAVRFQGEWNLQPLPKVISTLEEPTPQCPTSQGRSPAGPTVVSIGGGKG
Assay: Dopamine beta hydroxylase activity in human plasma
Format: biochemical
Summary of the method: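 Octopamine production from tyramine over 45 min at 37° C, measured photometrically at 330 nm after SCX extraction and periodate oxidation against an octopamine standard curve, indicates plasma DβH activity. Compounds tested at final 10, 100 and 1000 nM in human plasma, pH 5.0 cofactor buffer, 10 min preincubation; results as % of control.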

SMILES	Plasma (0.01 μM), activity in % of control (inhibitor 0.01 μM)	Plasma (0.1 μM), activity in % of control (inhibitor 0.1 μM)	Plasma (0.01 μM), activity in % of control, re-test (asterisked) (inhibitor 0.01 μM, re-tested under the same experimental conditions, asterisked data believed to be correct)	Plasma (0.1 μM), activity in % of control, re-test (asterisked) (inhibitor 0.1 μM, re-tested under the same experimental conditions, asterisked data believed to be correct)
Cn1c(CC(=O)N[C@H]2CC[C@H](O)CC2)c2n(c1=S)C[C@@]1(c3cc(Cl)ccc3F)C[C@@H]21 [Example 355, 2-((5aS,6aR)-5a-(5-chloro-2-fluorophenyl)-2-methyl-3-thioxo-2,3,5,5a,6,6a-hexahydrocyclopropa[3,4]pyrrolo[1,2-c]imidazol-1-yl)-N-((1r,4R)-4-hydroxycyclohexyl)acetamide]	56.4 % of control	14.0 % of control	–	–
Cn1c(CC(=O)NC2CC2)c2n(c1=S)C[C@@]1(c3cc(Br)ccc3F)C[C@@H]21 [Example 357, 2-((5aS,6aR)-5a-(5-bromo-2-fluorophenyl)-2-methyl-3-thioxo-2,3,5,5a,6,6a-hexahydrocyclopropa[3,4]pyrrolo[1,2-c]imidazol-1-yl)-N-cyclopropylacetamide]	62.1 % of control	15.1 % of control	–	–
Cn1c(CCN[C@@H]2CCOC2)c2n(c1=S)C[C@@]1(c3cc(Br)ccc3F)C[C@@H]21 [Example 359, (5aS,6aR)-5a-(5-bromo-2-fluorophenyl)-2-methyl-1-(2-(((R)-tetrahydrofuran-3-yl)amino)ethyl)-5,5a,6,6a-tetrahydrocyclopropa[3,4]pyrrolo[1,2-c]imidazole-3(2H)-thione]	101.2 % of control	53.3 % of control	–	–
O=C(Cc1[nH]c(=S)n2c1C[C@H](c1c(F)c(F)cc(F)c1F)C2)N[C@@H]1CCOC1 [Example 360, 2-((R)-6-(2,3,5,6-tetrafluorophenyl)-3-thioxo-2,5,6,7-tetrahydro-3H-pyrrolo[1,2-c]imidazol-1-yl)-N—((R)-tetrahydrofuran-3-yl)acetamide]	31.8 % of control	1.4 % of control	90.1* % of control	22.5* % of control
O=C(O)Cc1[nH]c(=S)n2c1[C@@H]1C[C@]1(c1cc(Br)ccc1F)C2 [Example 361, 2-((5aS,6aR)-5a-(5-bromo-2-fluorophenyl)-3-thioxo-2,3,5,5a,6,6a-hexahydrocyclopropa[3,4]pyrrolo[1,2-c]imidazol-1-yl)acetic Acid]	60.0 % of control	10.4 % of control	–	–
O=C(Cc1[nH]c(=S)n2c1C[C@@H](c1c(F)ccc(Cl)c1F)C2)N[C@@H]1CCOC1 [Example 362, 2-((S)-6-(3-chloro-2,6-difluorophenyl)-3-thioxo-2,5,6,7-tetrahydro-3H-pyrrolo[1,2-c]imidazol-1-yl)-N—((R)-tetrahydrofuran-3-yl)acetamide]	43.2 % of control	11.8 % of control	–	–
O=C(Cc1[nH]c(=S)n2c1C[C@@H](c1c(F)ccc(Cl)c1F)C2)N1CCOCC1 [Example 363, (S)-2-(6-(3-chloro-2,6-difluorophenyl)-3-thioxo-2,5,6,7-tetrahydro-3H-pyrrolo[1,2-c]imidazol-1-yl)-1-morpholinoethan-1-one]	89.5 % of control	20.8 % of control	–	–
CN(C(=O)Cc1[nH]c(=S)n2c1C[C@H](c1c(F)ccc(F)c1F)C2)C1CCOC1 (stereo partly drawn) [Example 364, N-methyl-N-(tetrahydrofuran-3-yl)-2-((R)-3-thioxo-6-(2,3,6-trifluorophenyl)-2,5,6,7-tetrahydro-3H-pyrrolo[1,2-c]imidazol-1-yl)acetamide]	97.0 % of control	54.7 % of control	–	–
O=C(Cc1[nH]c(=S)n2c1C[C@H](c1c(F)ccc(F)c1F)C2)N1CCOCC1 [Example 366, (R)-2-(6-(2,3,6-trifluorophenyl)-3-thioxo-2,5,6,7-tetrahydro-3H-pyrrolo[1,2-c]imidazol-1-yl)-1-morpholinoethan-1-one]	124.8 % of control	81.4 % of control	–	–
O=C(Cc1[nH]c(=S)n2c1C[C@H](c1c(F)c(F)cc(F)c1F)C2)N[C@H]1CCOC1 [Example 369, 2-((R)-6-(2,3,5,6-tetrafluorophenyl)-3-thioxo-2,5,6,7-tetrahydro-3H-pyrrolo[1,2-c]imidazol-1-yl)-N—((S)-tetrahydrofuran-3-yl)acetamide]	86.0 % of control	60.1 % of control	–	–

Results, then the compound that gave them:

Plasma (0.01 μM), activity in % of control (inhibitor 0.01 μM)	Plasma (0.1 μM), activity in % of control (inhibitor 0.1 μM)	Plasma (0.01 μM), activity in % of control, re-test (asterisked) (inhibitor 0.01 μM, re-tested under the same experimental conditions, asterisked data believed to be correct)	Plasma (0.1 μM), activity in % of control, re-test (asterisked) (inhibitor 0.1 μM, re-tested under the same experimental conditions, asterisked data believed to be correct)	SMILES
90.6 % of control	38.4 % of control	–	–	Cn1c(CC(=O)N2CCC(CF)C2)c2n(c1=S)C[C@@H](c1c(F)ccc(F)c1F)C2 (stereo partly drawn) [Example 353, 1-(3-(fluoromethyl)pyrrolidin-1-yl)-2-((R)-2-methyl-3-thioxo-6-(2,3,6-trifluorophenyl)-2,5,6,7-tetrahydro-3H-pyrrolo[1,2-c]imidazol-1-yl)ethan-1-one]
106.2 % of control	53.4 % of control	–	–	Cn1c(CC(=O)N[C@@H]2CCCNC2=O)c2n(c1=S)C[C@@H](c1c(F)ccc(F)c1F)C2 [Example 354, 2-((R)-2-methyl-3-thioxo-6-(2,3,6-trifluorophenyl)-2,5,6,7-tetrahydro-3H-pyrrolo[1,2-c]imidazol-1-yl)-N—((R)-2-oxopiperidin-3-yl)acetamide]
35.4 % of control	6.6 % of control	–	–	Cn1c(CC(=O)NC2CCCCC2)c2n(c1=S)C[C@H](c1c(F)ccc(Cl)c1F)C2 [Example 356, (S)-2-(6-(3-chloro-2,6-difluorophenyl)-2-methyl-3-thioxo-2,5,6,7-tetrahydro-3H-pyrrolo[1,2-c]imidazol-1-yl)-N-cyclohexylacetamide]
90.1 % of control	24.9 % of control	–	–	CN(C)C(=O)C1CCN(C(=O)Cc2c3n(c(=S)n2C)C[C@@H](c2c(F)ccc(F)c2F)C3)C1 (stereo partly drawn) [Example 358, N,N-dimethyl-1-(2-((R)-2-methyl-3-thioxo-6-(2,3,6-trifluorophenyl)-2,5,6,7-tetrahydro-3H-pyrrolo[1,2-c]imidazol-1-yl)acetyl)pyrrolidine-3-carboxamide]
101.3 % of control	56.9 % of control	–	–	O=C(Cc1[nH]c(=S)n2c1C[C@H](c1c(F)ccc(F)c1F)C2)N[C@@H]1CCCOC1 [Example 365, N—((R)-tetrahydro-2H-pyran-3-yl)-2-((R)-3-thioxo-6-(2,3,6-trifluorophenyl)-2,5,6,7-tetrahydro-3H-pyrrolo[1,2-c]imidazol-1-yl)acetamide]
45.4 % of control	4.3 % of control	–	–	Cn1c(CC(=O)NC2CCOCC2)c2n(c1=S)C[C@H](c1c(F)ccc(Cl)c1F)C2 [Example 367, (S)-2-(6-(3-chloro-2,6-difluorophenyl)-2-methyl-3-thioxo-2,5,6,7-tetrahydro-3H-pyrrolo[1,2-c]imidazol-1-yl)-N-(tetrahydro-2H-pyran-4-yl)acetamide]
104.4 % of control	63.1 % of control	–	–	O=C(Cc1[nH]c(=S)n2c1C[C@H](c1c(F)ccc(F)c1F)C2)N[C@@H]1CCOC1 [Example 368, 2-((R)-6-(2,3,6-trifluorophenyl)-3-thioxo-2,5,6,7-tetrahydro-3H-pyrrolo[1,2-c]imidazol-1-yl)-N—((R)-tetrahydrofuran-3-yl)acetamide]
88.5 % of control	64.7 % of control	–	–	O=C(Cc1[nH]c(=S)n2c1C[C@H](c1c(F)ccc(F)c1F)C2)N[C@H]1CCOC1 [Example 370, 2-((R)-6-(2,3,6-trifluorophenyl)-3-thioxo-2,5,6,7-tetrahydro-3H-pyrrolo[1,2-c]imidazol-1-yl)-N—((S)-tetrahydrofuran-3-yl)acetamide]
79.0 % of control	17.7 % of control	–	–	CN1CC(NC(=O)Cc2c3n(c(=S)n2C)C[C@@H](c2c(F)ccc(F)c2F)C3)CCC1=O (stereo partly drawn) [Example 371, 2-((R)-2-methyl-3-thioxo-6-(2,3,6-trifluorophenyl)-2,5,6,7-tetrahydro-3H-pyrrolo[1,2-c]imidazol-1-yl)-N-(1-methyl-6-oxopiperidin-3-yl)acetamide]
93.4 % of control	32.0 % of control	–	–	CN(C(=O)Cc1c2n(c(=S)n1C)C[C@@H](c1c(F)ccc(F)c1F)C2)C1CCOCC1 [Example 372, (R)—N-methyl-2-(2-methyl-3-thioxo-6-(2,3,6-trifluorophenyl)-2,5,6,7-tetrahydro-3H-pyrrolo[1,2-c]imidazol-1-yl)-N-(tetrahydro-2H-pyran-4-yl)acetamide]

Source: patent US11434242B2, “Dopamine-b-hydroxylase inhibitors” (BIAL-PORTELA & Cª, S.A., priority 2017, dated 2022)
